This note sets out measurements from US6423717B1, “Sulphonamide derivatives, process for their preparation, and their use as medicaments” (SmithKline Beecham p.l.c., priority 1996, dated 2002).

T1 sequence (P50406 whole entry): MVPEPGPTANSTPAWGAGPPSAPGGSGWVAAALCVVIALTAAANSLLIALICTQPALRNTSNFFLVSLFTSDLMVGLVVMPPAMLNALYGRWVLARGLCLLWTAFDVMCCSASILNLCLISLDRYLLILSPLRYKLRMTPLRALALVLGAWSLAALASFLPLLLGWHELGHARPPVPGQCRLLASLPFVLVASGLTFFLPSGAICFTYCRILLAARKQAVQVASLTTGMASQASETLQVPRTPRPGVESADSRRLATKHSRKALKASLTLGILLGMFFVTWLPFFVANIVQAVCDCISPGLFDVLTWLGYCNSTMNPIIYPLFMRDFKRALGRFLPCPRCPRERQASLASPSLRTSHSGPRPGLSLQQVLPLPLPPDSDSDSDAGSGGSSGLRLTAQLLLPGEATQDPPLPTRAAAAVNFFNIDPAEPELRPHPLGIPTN

The assay addresses T1, human cloned 5-HT6 receptors (Homo sapiens, UniProt P50406).
T1 construct: host or cells: HeLa cells expressing 5-HT6 (HeLa-5HT6), washed membranes
As to the kind of experiment: 5-HT6 receptor binding assay, [3H]-LSD displacement on washed membranes of HeLa-5HT6 cells. The conditions noted are these: radio-ligand [3H]-LSD 2.0 nM, HeLa-5HT6 cell membranes, 37° C., Ki by Cheng and Prusoff. The method, then: Method for assay of 5-HT6 antagonistic activity:
The test compounds were dissolved in polyethylene glycol:dimethyl sulphoxide (1:1) at 1 or 10 mM and diluted to 0.1 mM using 5 mM tris buffer (pH 7.7 @25° C.). Dissolution was assisted by addition of 0.02 ml 5M HCl plus heating to 40° C. and sonication for 10 minutes. […] The incubation buffer was 50 mM Trizma (Sigma, UK) pH7.7 @25° C., 4 mM MgCl2.
After incubation at 37° C., the mixtures were filtered using a Packard Filtermate in Packard TopCount format. Filters were washed with 4×1 ml aliquots of ice-cold incubation buffer. Filters were dried and impregnated with 0.04 ml of Microscint 20 (Packard). IC50 values were estimated from the counts per minute using a four parameter logistic curve fit within EXCEL (2). Ki values were calculated using the method of Cheng and Prusoff(3). pIC50 and pKi are the negative log10 of the molar IC50 and Ki respectively.
`COc1ccc(NS(=O)(=O)c2cccc(Br)c2)cc1N1CCN(C)CC1` [Example 11, 3-Bromo-N-[4-methoxy-3-(4-methylpiperazin-1-yl)phenyl]benzenesulfonamide] showed a Ki of under 10 nM.

On to `COc1ccc(NS(=O)(=O)c2cc(Cl)cc(Cl)c2)cc1N1CCN(C)CC1` [Example 15, 3,5-Dichloro-N-[4-methoxy-3-(4-methylpiperazin-1-yl)phenyl]benzenesulfonamide], for which the Ki was under 10 nM.

`COc1ccc(NS(=O)(=O)c2ccc3c(Cl)cccc3c2)cc1N1CCN(C)CC1` [Example 61, 5-Chloronaphthalene-2-sulfonic acid [4-methoxy-3-(4-methylpiperazin-1-yl)phenyl] amide] had a Ki of under 10 nM.

With `COc1ccc(NS(=O)(=O)c2c(C)sc3ccc(Cl)cc23)cc1N1CCN(C)CC1` [Example 65, 5-Chloro-2-methylbenzo[b]thiophene-3-sulfonic acid [4-methoxy-3-(4-methylpiperazin-1-yl)phenyl] amide], the Ki was under 10 nM.

The molecule `COc1ccc(NS(=O)(=O)c2cccc(I)c2)cc1N1CCNCC1` [Example 70, 3-Iodo-N-(4-methoxy-3-piperazin-1-ylphenyl)benzenesulfonamide] had a Ki of under 10 nM.

The molecule `COc1ccc(NS(=O)(=O)c2cc(Cl)cc(Cl)c2)cc1N1CCNCC1` [Example 72, 3,5-Dichloro-N-(4-methoxy-3-piperazin-1-ylphenyl)benzenesulfonamide] had a Ki of under 10 nM.

`COc1ccc(NS(=O)(=O)c2cccc(Br)c2)cc1N1CCNCC1` [Example 77, 3-Bromo-N-(4-methoxy-3-piperazin-1-ylphenyl)benzenesulfonamide] had an inhibitory constant (Ki) of under 10 nM.

`COc1ccc(NS(=O)(=O)c2cccc(Cl)c2)cc1N1CCNCC1` [Example 78, 3-Chloro-N-(4-methoxy-3-piperazin-1-ylphenyl)benzenesulfonamide] showed a Ki of under 10 nM.

`COc1ccc(NS(=O)(=O)c2ccc3c(Cl)cccc3c2)cc1N1CCNCC1` [Example 79, 5-Chloronaphthalene-2-sulfonic acid(4-methoxy-3-piperazin-1-ylphenyl)amide] had a Ki of under 10 nM.

`COc1ccc(NS(=O)(=O)c2c(C)sc3ccc(Cl)cc23)cc1N1CCNCC1` [Example 84, 5-Chloro-2-methylbenzo[b]thiophene-3-sulfonic acid (4-methoxy-3-piperazin-1-ylphenyl) amide] gave a Ki of under 10 nM.

The molecule `COc1ccc(NS(=O)(=O)c2ccc3ccccc3c2)cc1N1CCNCC1` [Example 87, Naphthalene-2-sulfonic acid(4-methoxy-3-piperazin-1-ylphenyl)amide] gave a Ki of under 10 nM.

As to `COc1ccc(NS(=O)(=O)c2ccc(Cl)c(Cl)c2)cc1N1CCNCC1` [Example 90, 3,4-Dichloro-N-(4-methoxy-3-piperazin-1-ylphenyl)benzenesulfonamide], the Ki is under 10 nM.

As usually defined, the Ki is the dissociation constant of the complex between target and ligand, obtained from inhibition or displacement. Read a high Ki as lower affinity.
